Reference: the supplement of paper PMC10307832

Experiments:
Assay in all cases: relative viability (nuclei count vs DMSO), 5 days (fraction); higher = more cells survive
[1] = test system: LK-2
Outline: (§1)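 Lung cancer cell lines in 1536-well plates were dosed by pin tool the day after seeding, either with one drug alone or with a fixed anchor-drug dose plus five library-drug doses (not always all listed) in √10 steps. After 5 days, cells were fixed and their nuclei stained in one step (final 0.05% Triton X-100, 1% formaldehyde, 1 ug/ml Hoechst), then counted on 4× images. Relative viability is the nuclei count in treated wells divided by that in vehicle wells. Values are medians of duplicate plates.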

[2] = test system: HCC-827
Outline: as §1

[3] = test system: COR-L 105
Outline: as §1

[4] = test system: NCI-H661
Outline: as §1

[5] = test system: EKVX
Outline: as §1

[6] = test system: 201T
Outline: as §1

[7] = test system: NCI-H1734
Outline: as §1

[8] = test system: COR-L23
Outline: as §1

[9] = test system: HCC-15
Outline: as §1

[10] = test system: NCI-H2347
Outline: as §1

[11] = test system: HCC-78
Outline: as §1

[12] = test system: NCI-H1944
Outline: as §1

[13] = test system: RERF-LC-KJ
Outline: as §1

[14] = test system: HCC-366
Outline: as §1

[15] = test system: PC-3 [JPC-3]
Outline: as §1

[16] = test system: LC-2-ad
Outline: as §1

[17] = test system: NCI-H1755
Outline: as §1

[18] = test system: SW 900
Outline: as §1

[19] = test system: NCI-H1915
Outline: as §1

[20] = test system: NCI-H1650
Outline: as §1

[21] = test system: NCI-H1648
Outline: as §1

[22] = test system: LU99A
Outline: as §1

[23] = test system: NCI-H441
Outline: as §1

[24] = test system: BEN
Outline: as §1

C=C1C(=O)O[C@@H](CCCCCCCC)[C@@H]1C(=O)O [C-75] + CC(=O)c1c(C)c2cnc(Nc3ccc(N4CCNCC4)cn3)nc2n(C2CCCC2)c1=O [Palbociclib] (partner 0.5 µM)
relative viability ([1]; first compound 0.08 µM): 0.779
relative viability ([1]; first compound 0.253 µM): 0.754
relative viability ([1]; first compound 0.8 µM): 0.723
relative viability ([1]; first compound 2.53 µM): 0.495
relative viability ([1]; first compound 8 µM): 0.573
relative viability ([2]; first compound 0.253 µM): 0.519
relative viability ([2]; first compound 0.8 µM): 0.5
relative viability ([2]; first compound 8 µM): 0.494
relative viability ([3]; first compound 0.08 µM): 0.417
relative viability ([3]; first compound 0.253 µM): 0.41
relative viability ([3]; first compound 0.8 µM): 0.358
relative viability ([3]; first compound 2.53 µM): 0.303
relative viability ([3]; first compound 8 µM): 0.39
relative viability ([4]; first compound 0.08 µM): 0.429
relative viability ([4]; first compound 0.253 µM): 0.41
relative viability ([4]; first compound 0.8 µM): 0.378
relative viability ([4]; first compound 2.53 µM): 0.374
relative viability ([4]; first compound 8 µM): 0.394
relative viability ([5]; first compound 0.08 µM): 0.4
relative viability ([5]; first compound 0.253 µM): 0.307
relative viability ([5]; first compound 0.8 µM): 0.383
relative viability ([5]; first compound 8 µM): 0.425
relative viability ([6]; first compound 0.08 µM): 0.377
relative viability ([6]; first compound 0.253 µM): 0.374
relative viability ([6]; first compound 0.8 µM): 0.336
relative viability ([6]; first compound 2.53 µM): 0.3
relative viability ([6]; first compound 8 µM): 0.347
relative viability ([7]; first compound 0.08 µM): 0.34
relative viability ([7]; first compound 0.253 µM): 0.315
relative viability ([7]; first compound 0.8 µM): 0.36
relative viability ([7]; first compound 2.53 µM): 0.254
relative viability ([7]; first compound 8 µM): 0.345
relative viability ([8]; first compound 0.08 µM): 0.353
relative viability ([8]; first compound 0.253 µM): 0.305
relative viability ([8]; first compound 0.8 µM): 0.255
relative viability ([8]; first compound 2.53 µM): 0.24
relative viability ([8]; first compound 8 µM): 0.28
relative viability ([9]; first compound 0.08 µM): 0.717
relative viability ([9]; first compound 0.253 µM): 0.699
relative viability ([9]; first compound 0.8 µM): 0.605
relative viability ([9]; first compound 2.53 µM): 0.628
relative viability ([9]; first compound 8 µM): 0.664
relative viability ([10]; first compound 0.08 µM): 0.468
relative viability ([10]; first compound 0.253 µM): 0.44
relative viability ([10]; first compound 0.8 µM): 0.35
relative viability ([10]; first compound 2.53 µM): 0.389
relative viability ([10]; first compound 8 µM): 0.413
relative viability ([11]; first compound 0.08 µM): 0.476
relative viability ([11]; first compound 0.253 µM): 0.469
relative viability ([11]; first compound 0.8 µM): 0.514
relative viability ([11]; first compound 2.53 µM): 0.459
relative viability ([11]; first compound 8 µM): 0.461
relative viability ([12]; first compound 0.08 µM): 0.34
relative viability ([12]; first compound 0.253 µM): 0.296
relative viability ([12]; first compound 0.8 µM): 0.279
relative viability ([12]; first compound 2.53 µM): 0.305
relative viability ([12]; first compound 8 µM): 0.305
relative viability ([13]; first compound 0.08 µM): 1.06
relative viability ([13]; first compound 0.253 µM): 1.12
relative viability ([13]; first compound 0.8 µM): 1.07
relative viability ([13]; first compound 2.53 µM): 1.03
relative viability ([13]; first compound 8 µM): 1.15
relative viability ([14]; first compound 0.08 µM): 0.363
relative viability ([14]; first compound 0.253 µM): 0.477
relative viability ([14]; first compound 0.8 µM): 0.33
relative viability ([14]; first compound 2.53 µM): 0.334
relative viability ([14]; first compound 8 µM): 0.343
relative viability ([15]; first compound 0.08 µM): 0.54
relative viability ([15]; first compound 0.253 µM): 0.509
relative viability ([15]; first compound 0.8 µM): 0.515
relative viability ([15]; first compound 2.53 µM): 0.502
relative viability ([15]; first compound 8 µM): 0.568
relative viability ([16]; first compound 0.08 µM): 0.555
relative viability ([16]; first compound 0.253 µM): 0.474
relative viability ([16]; first compound 0.8 µM): 0.471
relative viability ([16]; first compound 2.53 µM): 0.381
relative viability ([16]; first compound 8 µM): 0.482
relative viability ([17]; first compound 0.08 µM): 0.417
relative viability ([17]; first compound 0.253 µM): 0.428
relative viability ([17]; first compound 0.8 µM): 0.42
relative viability ([17]; first compound 2.53 µM): 0.378
relative viability ([17]; first compound 8 µM): 0.408
relative viability ([18]; first compound 0.08 µM): 0.49
relative viability ([18]; first compound 0.253 µM): 0.647
relative viability ([18]; first compound 0.8 µM): 0.601
relative viability ([18]; first compound 2.53 µM): 0.594
relative viability ([18]; first compound 8 µM): 0.607
relative viability ([19]; first compound 0.08 µM): 0.515
relative viability ([19]; first compound 0.253 µM): 0.556
relative viability ([19]; first compound 0.8 µM): 0.546
relative viability ([19]; first compound 2.53 µM): 0.472
relative viability ([19]; first compound 8 µM): 0.5
relative viability ([20]; first compound 0.08 µM): 0.431
relative viability ([20]; first compound 0.253 µM): 0.414
relative viability ([20]; first compound 0.8 µM): 0.342
relative viability ([20]; first compound 8 µM): 0.38
relative viability ([21]; first compound 0.08 µM): 0.251
relative viability ([21]; first compound 0.253 µM): 0.398
relative viability ([21]; first compound 0.8 µM): 0.292
relative viability ([21]; first compound 8 µM): 0.295
relative viability ([22]; first compound 0.08 µM): 0.383
relative viability ([22]; first compound 0.253 µM): 0.354
relative viability ([22]; first compound 0.8 µM): 0.481
relative viability ([22]; first compound 2.53 µM): 0.408
relative viability ([22]; first compound 8 µM): 0.398
relative viability ([23]; first compound 0.08 µM): 0.255
relative viability ([23]; first compound 0.253 µM): 0.255
relative viability ([23]; first compound 0.8 µM): 0.205
relative viability ([23]; first compound 8 µM): 0.184
relative viability ([24]; first compound 0.08 µM): 0.509
relative viability ([24]; first compound 0.253 µM): 0.483
relative viability ([24]; first compound 0.8 µM): 0.46
relative viability ([24]; first compound 2.53 µM): 0.375
relative viability ([24]; first compound 8 µM): 0.452
